Measurements as given in patent US7951779B2, “Method of protecting cells against damage and pharmaceutical composition comprising leumorphin” (Postech Academy-Industry Foundation, priority 2005, dated 2011).

How the values were obtained:
PC12 cells [1] = test: MTT conversion assay of cell viability under serum deprivation; type: cell-based, rat
KOR = biological target: T1, KOR (Rattus norvegicus, UniProt P34975); type: cell-based; conditions: agonist 1 μM, 10 min, Ro-20-1724 pretreatment
T1 construct: confirming that the KOR ligands we used have proper activities and that functional KOR is expressed in PC12 cells; endogenous in cells; host or cells: PC12 (rat pheochromocytoma)
T1 sequence (P34975 whole entry): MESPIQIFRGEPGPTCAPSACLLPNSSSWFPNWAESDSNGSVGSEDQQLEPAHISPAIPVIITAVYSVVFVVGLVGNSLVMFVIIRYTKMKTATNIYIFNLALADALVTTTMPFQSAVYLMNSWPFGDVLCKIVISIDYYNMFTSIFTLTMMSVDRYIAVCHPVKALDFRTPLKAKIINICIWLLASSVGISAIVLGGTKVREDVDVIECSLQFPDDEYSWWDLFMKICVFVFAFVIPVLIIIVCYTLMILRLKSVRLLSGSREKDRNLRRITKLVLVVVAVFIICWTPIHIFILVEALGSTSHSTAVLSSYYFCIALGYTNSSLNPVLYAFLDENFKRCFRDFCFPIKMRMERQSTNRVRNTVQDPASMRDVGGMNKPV

PC12 cells [2] = test: Competition binding assay of 125I-labeled leumorphin in PC12 cells; parameters: species or system rat
Method: Ligand binding analysis was performed as previously described (Bae et al., 2004). Briefly, PC12 cells were seeded at a density of 4×10^5 cells/well into a 12-well plate and cultured overnight. After incubating the cells in blocking buffer (33 mM HEPES (pH 7.5) and 0.1% BSA in RPMI 1640) for 2 hr, 25 pM of ^125I-labeled leumorphin dissolved in binding buffer (PBS containing 0.1% BSA) was added to the cells in the absence or presence of unlabeled ligands and incubated for 3 hr at 4° C. The samples were then washed five times with ice-cold binding buffer, and 500 μl of 1 N NaOH was added to each well. After 10 min at room temperature, the lysates were collected and counted using a gamma counter.
We investigated the possibility that leumorphin might have another binding site(s), in addition to the binding site for the KOR in PC12 cells. That is, an inhibition of [^125I]leumorphin binding in PC12 cells was investigated. PC12 cells were treated with various concentrations of unlabeled leumorphin, (−)-U-50488 and nor-BNI in the presence of ^125I-labeled leumorphin (25 pM) for 3 hr at 4° C. Specifically bound ^125I-labeled leumorphin was measured as described in “Materials and Methods”. For this purpose, we performed competition binding assay of ^125I-labeled leumorphin with unlabeled-agonists, leumorphin and (−)-U-50488, and an antagonist, nor-BNI.

AKT and ERK [3] = type: cell-based, rat
AKT and ERK [4] = test: AKT and ERK phosphorylation in HEK-293 cells that do not express the KOR; type: cell-based; conditions: data not shown
EGFR = EGFR tyrosine phosphorylation, immunoprecipitation and Western blot in PC12 cells; type: cell-based, rat; conditions: indicated doses for 10 min; 1 μM for indicated times
Method: Immunoprecipitation was performed as previously described (Daub et al., 1997). In brief, cells were washed with ice-cold PBS and lysed with lysis buffer (50 mM HEPES pH 7.5, 150 mM NaCl, 1% Triton X-100, 1 mM EDTA, 10% glycerol) containing protease inhibitors (0.5 mM PMSF, 1 μg/ml leupeptin and 5 μg/ml aprotinin) and phosphatase inhibitors (30 mM NaF, 1 mM Na3VO4 and 30 mM Na4O7P2). The cell lysates were incubated for 1 hr at 4° C. After centrifugation (12,000×g for 15 min), equal amounts of soluble extract were incubated for 4 hr, with 5 μg of anti-EGFR antibody and 30 μl of resin volume of immobilized protein G For gel electrophoresis, the precipitates were dissolved in Laemmli sample buffer.
FIGS. 5C and 5D, PC12 cells were stimulated with the indicated doses of leumorphin for 10 min (C) or with 1 μM of leumorphin for the indicated times (D). […] Cell lysates were subjected to Western blot analysis after immunoprecipitation with EGFR antibodies. Tyrosine-phosphorylated EGFRs were detected by immunoblotting with phosphotyrosine antibodies. The amounts of the precipitated EGFRs were monitored by reprobing the same blot with EGFR antibodies. […] In FIG. 5G, PC12 cells were preincubated with 1 μM AG1478 or 5 μM PP2 for 20 min and then stimulated with 1 μM leumorphin for 10 min. Phosphorylation of AKT and ERK was detected by Western blot analysis as in FIG. 4F. C-E,

PC12 cells [5] = test: TUNEL apoptosis assay in serum-deprived PC12 cells; type: cell-based, rat; conditions: leumorphin 1 μM, 24 hr
Method: TUNEL assay was performed according to the manufactures' instruction (Promega Corp.). Briefly, cells on coverslips were fixed with 4% paraformaldehyde for 30 min after stimulation, washed with PBS, permeabilized with 0.2% Triton X-100 for 5 min, rinsed with PBS, and were incubated with 25 μL TUNEL reaction mixture (containing enzyme, nucleotides, and fluorescein-dUTP) in a humidified atmosphere at 37° C. for 1 hr. To observe nuclear morphology, cells were counterstained with 2 μg/ml propidium iodide. Following these incubations, coverslips were rinsed with PBS three times and analyzed under conforcal microscopy We captured images which had at least 100 cells and used five different images from three independent experiments for statistic analysis.
It has been reported that in PC12 cells apoptosis can be induced by serum deprivation, which mimics the fluctuations in the supply of growth factors (Batistatou et al., 1993). […]
In FIG. 6A, Fragmentation of DNA in the nucleus was detected by a fluorescent TUNEL apoptosis assay. […] In FIG. 6D, caspase-3 activity was measured by using a specific fluorogenic substrate of caspase-3 (Ac-DEVD -AMC) as described in “Materials and Methods”.

PC12 cells [6] = test: DNA ploidy analysis (FACS, sub-Go/Gl) in serum-deprived PC12 cells; type: cell-based, rat; conditions: leumorphin 1 μM, 24 hr, serum deprivation; 35.7±2.2% without leumorphin
Method: Cells were suspended in PBS containing 5 mM EDTA and fixed in 100% ethanol. RNase A (50 μg/ml) was added to the suspended cells, and the cells were incubated at room temperature for 30 min. Propidium iodide (2 μg/ml) was added before reading. DNA contents of the cells were analyzed using a FACScan flow cytometer (Becton Dickinson, Franklin Lakes, N.J.), which was also used to determine the percentage of cells in the different phases of the cell cycle.
(§1) In FIG. 6A, Fragmentation of DNA in the nucleus was detected by a fluorescent TUNEL apoptosis assay. TUNEL stainings are shown in a-c, PI stainings are shown in d-f, and the merged images are presented in g-i. […] Each bar represents a fold increase of TUNEL-positive population of cells after treatment as indicated in serum-deprived condition versus those in serum-growing condition. In FIG. 6C, in order to analyze DNA ploidy, cells were fixed with ethanol, and FACS analysis was performed as described in “Materials and Methods”. In FIG. 6D, caspase-3 activity was measured by using a specific fluorogenic substrate of caspase-3 (Ac-DEVD -AMC) as described in “Materials and Methods”.

caspase-3 = test: Caspase-3 enzymatic activity in PC12 cell lysates; type: cell-based, rat; conditions: leumorphin 1 μM, 24 hr
Method: PC12 cell lysates were centrifuged at 1,000×g for 10 min. Equal amount of supernatant (20 μg protein) was diluted in buffer containing 100 mM Hepes, 10% sucrose, 5 mM dithiothreitol, […], and 0.1% CHAPS (pH 7.25), and was added to each well of a 96-well plate containing 50 μM DEVD-aminomethylcoumarin (AMC). After incubation at 37° C. for 1 hr, the cleaved free AMC was detected using a fluorospectrophotometer (excitation of 355 nm, emission of 460 nm).
as §1

leumorphin
cell viability (MTT conversion, percentage of surviving cells) (PC12 cells [1]): specifically enhanced | dose- and time-dependence of enhancement of cell viability (PC12 cells [1]): dose-(FIG. 1D) and a time-dependent (FIG. 1E) manner | effect on forskolin-induced increase of cAMP contents (KOR): inhibitory effect | concentration up to which the inhibitory extent continued to increase (PC12 cells [2]): 10 µM | replacement of labeled leumorphin (PC12 cells [2]): completely replaced | phosphorylation of AKT and ERK (AKT and ERK [3]): specifically induced phosphorylation of both AKT and ERK | phosphorylation of AKT and ERK in HEK-293 cells (AKT and ERK [4]): specifically induced phosphorylation of AKT and ERK | tyrosine phosphorylation of EGFR (EGFR): induced tyrosine phosphorylation of EGFR in dose- and time-dependent manner | population of TUNEL-positive cells increased by serum deprivation (PC12 cells [5]): significantly reduced | sub-Go/Gl area, indicative of the apoptotic population (PC12 cells [6]): 25.8±1.8% | activity of caspase-3 elevated by serum-deprivation (caspase-3): decreased
